In US20060013770A1, “Method for screening for compounds as potential sedatives or anxiolytics” (priority 2002, published 2006):

Assays:
[1] = system: HPA axis; assay: Effect on plasma corticosterone (HPA axis activity) in mice, radioimmunoassay; assay type: in vivo, NMRI mice
[2] = system: HPA axis; assay: Time course of the effect on the HPA axis (plasma ACTH and corticosterone), FIG. 2; assay type: in vivo; conditions: 10 mg/kg
Description: One example of measuring the activity of the HPA axis is as follows: The animal Is treated with the NCE and sacrificed within an hour. As the release of ACTH occurs within an hour after the stimulation of the CRF neurons, animals are sacrificed at t=0, 5, 15, 30 and 60 minutes after administration. Trunk blood is taken, serum separated and levels of ACTH is measured in the serum by specific radioimmunoassay. Similarly, the level of glucocortcosteroids are determined at t=0, 30, 60, and 120 minutes (the response occurs somewhat later than ACTH) using a radioimmunoassay.

[3] = system: HPA axis; conditions: at the level of the hypothalamic CRF neurons; cited from earlier work
[4] = i.p., 60 minutes after administration

## Cn1ncnc1COc1nn2c(-c3cc(F)ccc3F)nnc2cc1C(C)(C)C [L-838,417]
[1]; 12.5 mg/kg, 2 h after administration
  effect on plasma corticosterone: no effects on plasma corticosterone was observed
[1]; i.p., doses up to 12.5 mg/kg, 60 minutes after administration
  effect on corticosterone: no effect

## Cc1ccc(-c2nc3ccc(C)cn3c2CC(=O)N(C)C)cc1 [Zolpidem, zolpidem]
[2]
  time course of plasma ACTH and corticosterone: The rise in plasma ACTH precedes the rise in corticosterone
[1]; i.p., 25 mg/kg, 60 minutes after administration
  effect on plasma corticosterone at 25 mg/kg compared with 12.5 mg/kg: not further increased
[1]; [4]
  dose at which the effect on plasma corticosterone reached a maximum: 12.5 mg/kg
  doses from which plasma corticosterone is significantly increased: ≥ 0.5 mg/kg
[1]; i.p., 60 minutes after administration, increasing doses
  effect on plasma corticosterone: significantly and dose-dependently increased plasma corticosterone

## CN1C(=O)CN=C(c2ccccc2)c2cc(Cl)ccc21 [Diazepam]
[3]
  effect on the HPA axis: slightly stimulate the HPA axis
